According to publication PMC2688680, “Identification, expression and characterisation of a Babesia bovis hexose transporter” (Molecular and Biochemical Parasitology, 2008):

Assays:
[1] = molecular target: T1, B. bovis hexose transporter 1 (BboHT1) (Babesia bovis, UniProt B0LKY8); assay: competition with […]D-glucose uptake in Xenopus oocytes at […] ([…] reduction); assay type: cell-based
T1 construct: full-length, 472 amino acid residues, Israel isolate, expressed in Xenopus laevis oocytes

[2] = molecular target: T1, B. bovis hexose transporter 1 (BboHT1); assay: radiotracer D-fructose uptake in Xenopus oocytes versus water-injected controls; assay type: cell-based
[3] = molecular target: T1, B. bovis hexose transporter 1 (BboHT1); assay: inhibition of […]D-glucose uptake in Xenopus oocytes expressing BboHT1; assay type: cell-based
[4] = substrate: OC[C@H]1OC(O)[C@H](O)[C@@H](O)[C@@H]1O; assay: radiotracer D-glucose influx kinetics in Xenopus oocytes (Km); assay type: cell-based, Babesia bovis; conditions: hydroxyl positions at O-4 and O-6 important for ligand binding

OC[C@H]1OC(O)C[C@@H](O)[C@@H]1O (stereo partly drawn) [2-DOG, 2-deoxy-D-glucose]
competition with [14C]D-glucose uptake in Xenopus oocytes at 10 mM (>50% reducti) [1]: 1-Deoxy-D-glucose, 2-deoxy-D-glucose, D-mannose (the 2-epimer of glucose), 3-deoxy-D-glucose, and 3-O-methyl-D-glucose all reduced D-glucose uptake via BboHT1

OC[C@H]1OC(O)(CO)[C@@H](O)[C@@H]1O (stereo partly drawn) [D-fructose]
radiotracer D-fructose uptake in Xenopus oocytes versus water-injected controls [2]: D-Fructose uptake also increased in oocytes expressing BboHT1 when compared with uptake in water-injected controls

OC[C@H]1OC[C@H](O)[C@@H](O)[C@@H]1O [1-DOG, 1-deoxy-D-glucose]
competition with [14C]D-glucose uptake in Xenopus oocytes at 10 mM (>50% reducti) [1]: 1-Deoxy-D-glucose, 2-deoxy-D-glucose, D-mannose (the 2-epimer of glucose), 3-deoxy-D-glucose, and 3-O-methyl-D-glucose all reduced D-glucose uptake via BboHT1

C=CCCCCCCCCCO[C@H]1[C@H](O)[C@@H](CO)OC(O)[C@@H]1O (stereo partly drawn) [compound 3361, 3-O-(undec-10-en)-yl-D-glucose]
Ki [3]: 4.1 ± 0.9 µM

B1: B. bovis hexose transporter 1 (BboHT1) (Babesia bovis) (protein)
chain: MRSYFVYALALGALVAFNFGLNTVSFVASREFAVMDLGWCAGQDKLYECSRASTYSDIIAAGTFIGGAVGSLLIGYFAKFGRRKGMLIIHIINVIGSCMSTSASCFTMFLLGRLIAGVSVGASGVVAIYLSEICTNESRGKFGIVYPLFICIGQFLMVAWQLLHGRILGADNKVVTMDDLKTFDKFVWRMAQFWPVVFSIIAVVIMVFIVTDDTPYVLLNEGKEEEARSVISKLHGEENADAITAELKADIEAQKANSDKLSLLEALKVAQYRKVIFICCGLGIVQQFSGINIFVANASTLFISIMGRTVIANVMGLVGILCLMVTMISLSFFIEKFGRKTLLLAGIFVSSVFMVPAVIIKLAAGKDAKWAEYIMVTGCMGFMVGFAIGLGGVMWLYLAEAMGAEYKDAGFGLATCANWLFAAIVVMTSGMLIKFNENFTYALYAGFGVLGFVYVALLIKETKGIPLGQAYA
notes: full-length, 472 amino acid residues, Israel isolate, expressed in Xenopus laevis oocytes
Km [4]: 840 ± 540 µM
